In brackets after ≈: the same amount, converted by molar mass.
Compound	solubility (20 °C) [mM]	solubility (25 °C) [mM]	other results
COC(=O)/C=C\C(=O)OC		555 (≈ 80000 µg/mL)	
CC1CCCO1 (stereo not drawn)		1810 (≈ 156000 µg/mL)	
C=CC(=O)OC		574 (≈ 49400 µg/mL)	
CC(C)CC(C)O (stereo not drawn)		161 (≈ 16400 µg/mL)	
FC(F)(Cl)C(F)(F)Cl		0.761 (≈ 130 µg/mL)	
CCCCCC(C)=O		37.7 (≈ 4300 µg/mL)	
Cc1ccc(Cl)c(Cl)c1			solubility (30 °C): 0.161 mM (≈ 26 µg/mL)
CC(C)CCOCCC(C)C		1.26 (≈ 200 µg/mL)	
CCC[N+](=O)[O-]		168 (≈ 15000 µg/mL)	
CCCCCl		11.9 (≈ 1100 µg/mL)	
CCOCC		815 (≈ 60400 µg/mL)	
FC(F)(F)Cl		0.862 (≈ 90 µg/mL)	
FC(Cl)(Cl)C(F)(Cl)Cl		0.617 (≈ 126 µg/mL)	
C=COC(C)=O	232 (≈ 20000 µg/mL)		
COC(=O)c1ccccc1	15.4 (≈ 2100 µg/mL)		
CCOC(=O)CC(C)C	18.5 (≈ 2410 µg/mL)		
CCOC(=O)/C=C\C(=O)OCC			solubility (30 °C): 81.3 mM (≈ 14000 µg/mL)
CC(=O)OCC(COC(C)=O)OC(C)=O		266 (≈ 58000 µg/mL)	
CC(=O)OC(C)CC(C)C (stereo not drawn)	9.01 (≈ 1300 µg/mL)		
CCCCOC(=O)CCCCCCCCC(=O)OCCCC	0.127 (≈ 40 µg/mL)		
N#Cc1ccccc1		19.4 (≈ 2000 µg/mL)	
C=C(C)C(=O)O	1030 (≈ 89000 µg/mL)		
C[Si](C)(C)C		0.222 (≈ 19.6 µg/mL)	

Second part, led by results:

solubility (20 °C) [mM]	solubility (25 °C) [mM]	Compound	other results
0.673 (≈ 100 µg/mL)		CCCCC(CC)CCl (stereo not drawn)	
13.2 (≈ 1710 µg/mL)		CCCCCOC(C)=O	
	0.527 (≈ 38 µg/mL)	CCCCC	
6.62 (≈ 597 µg/mL)		CCCCS	
1.79 (≈ 284 µg/mL)		CCCCCCCCC(=O)O	
	0.172 (≈ 14.8 µg/mL)	CCCC(C)C	
	0.00225 (≈ 0.325 µg/mL)	CC[Si](CC)(CC)CC	
	0.676 (≈ 48.8 µg/mL)	CCC(C)C	
47.3 (≈ 5500 µg/mL)		CCCC(=O)OCC	
30 (≈ 3000 µg/mL)		C=COCCCC	
19.3 (≈ 2500 µg/mL)		CCCCC(CC)CN (stereo not drawn)	
	48 (≈ 4900 µg/mL)	CCCOCCC	
	2.19 (≈ 500 µg/mL)	CCCCOC(=O)/C=C\C(=O)OCCCC	
	0.00172 (≈ 0.22 µg/mL)	CCCCCCCCC	
	2.3 (≈ 300 µg/mL)	CCCCOCCCC	

— the OPERA property sets (Mansouri et al. 2018)
